# Measured values as given in the supplement of paper PMC4862054.
# Where “and” joins values, the source holds several entries; their conditions need not be identical. Equal entries are not always repeated.
# How the values were obtained:
# Conditions in all cases: incubation time: 72 h
# CAL-85-1 = assay: drug sensitivity score (DSS), CellTiter-Blue viability (DSS (AUC-based score)); higher = stronger viability inhibition; extreme values may be limits of the assay
# Protocol: (§1)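 DSRT with the CellTiter-Blue (resazurin reduction) viability readout, fluorescence 560/590 nm, 72 h incubation. Plates were normalised to DMSO and benzethonium chloride controls. DSS is computed from the area under the fitted dose-response curve (5 or 9 concentrations).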
# DU-4475 = assay: as above
# Protocol: as §1
# Hs578T = assay: as above
# Protocol: as §1
# MDA-MB-231 [1] = assay: as above
# Protocol: as §1
# HCC1599 = assay: as above
# Protocol: as §1
# MDA-MB-453 [2] = assay: as above
# Protocol: as §1
# CAL-148 [3] = assay: as above
# Protocol: as §1
# SK-BR-3 [4] = assay: as above
# Protocol: as §1
# BT-474 = assay: as above
# Protocol: as §1
# BT-549 = assay: as above
# Protocol: as §1
# MDA-MB-436 = assay: as above
# Protocol: as §1
# CAL-51 [5] = assay: as above
# Protocol: as §1
# CAL-120 [6] = assay: as above
# Protocol: as §1
# HCC1143 = assay: as above
# Protocol: as §1
# MFM-223 = assay: as above
# Protocol: as §1
# HCC1937 = assay: as above
# Protocol: as §1
# HDQ-P1 [7] = assay: as above
# Protocol: as §1
# MDA-MB-468 [8] = assay: as above
# Protocol: as §1
# CAL-51 [9] = assay: normalised viability (% of control), CellTiter-Blue; higher = more viable cells (about 100 = DMSO control)
# Protocol: (§2)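 DSRT, CellTiter-Blue viability, 72 h incubation. Signal is normalised to DMSO and benzethonium chloride controls. Value is the normalised response at dose 8.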
# HDQ-P1 [10] = assay: as above
# Protocol: as §2
# MDA-MB-231 [11] = assay: normalised viability (% of control), CellTiter-Blue; higher = more viable cells (100 = DMSO, 0 = benzethonium chloride kill control)
# Protocol: (§3)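 DSRT, CellTiter-Blue viability, 72 h incubation. Signal is normalised to DMSO and benzethonium chloride controls. Value is the normalised response at dose 1.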
# MDA-MB-453 [12] = assay: as above
# Protocol: as §3
# CAL-148 [13] = assay: as above
# Protocol: as §3
# SK-BR-3 [14] = assay: as above
# Protocol: as §3
# CAL-120 [15] = assay: as above
# Protocol: as §3
# MDA-MB-468 [16] = assay: as above
# Protocol: as §3
SMILES,drug sensitivity score (CAL-85-1),drug sensitivity score (DU-4475),drug sensitivity score (Hs578T),drug sensitivity score (MDA-MB-231 [1]),drug sensitivity score (HCC1599),drug sensitivity score (MDA-MB-453 [2]),drug sensitivity score (CAL-148 [3]),drug sensitivity score (SK-BR-3 [4]),drug sensitivity score (BT-474),drug sensitivity score (BT-549),drug sensitivity score (MDA-MB-436),drug sensitivity score (CAL-51 [5]),drug sensitivity score (CAL-120 [6]),drug sensitivity score (HCC1143),drug sensitivity score (MFM-223),drug sensitivity score (HCC1937),drug sensitivity score (HDQ-P1 [7]),drug sensitivity score (MDA-MB-468 [8]),normalised viability (CAL-51 [9]; 3000 nM),normalised viability (HDQ-P1 [10]; 3000 nM),normalised viability (MDA-MB-231 [11]; 1 nM),normalised viability (MDA-MB-453 [12]; 1 nM),normalised viability (CAL-148 [13]; 1 nM),normalised viability (SK-BR-3 [14]; 1 nM),normalised viability (CAL-120 [15]; 1 nM),normalised viability (MDA-MB-468 [16]; 1 nM),normalised viability (CAL-51 [9]; 30000 nM) [%],normalised viability (HDQ-P1 [10]; 30000 nM) [%],normalised viability (CAL-51 [9]; 300 nM) [%],normalised viability (HDQ-P1 [10]; 300 nM) [%],normalised viability (MDA-MB-231 [11]; 0.1 nM) [%],normalised viability (MDA-MB-453 [12]; 0.1 nM) [%],normalised viability (CAL-148 [13]; 0.1 nM) [%],normalised viability (SK-BR-3 [14]; 0.1 nM) [%],normalised viability (CAL-120 [15]; 0.1 nM) [%],normalised viability (MDA-MB-468 [16]; 0.1 nM) [%]
CCCCCCCCc1ccc(CCC(N)(CO)CO)cc1 [Fingolimod],2.9,0,5.16,7.64,0,3.02,0,4.64,4.46,6.99,8.37,0,5.43,0,3.93,5.93,3.07,5.1,109%,95%,95.6%,94%,96.8%,102%,82.3%,106%,,,,,,,,,,
Cc1cc2c(C(C)C)c(O)c(O)c(C=O)c2c(O)c1-c1c(C)cc2c(C(C)C)c(O)c(O)c(C=O)c2c1O [Gossypol],,,,,,,,,,,,,,,,,,,,,,,,,,,3.25,4.62,,,,,,,,
Cc1ccc(NC(=O)c2ccc(CN3CCN(C)CC3)cc2)cc1Nc1nccc(-c2cccnc2)n1 [Imatinib],0,0,0,0,0,,0,0,0,0,0,0,0,0,0,0,0,0,108% and 98.6%,118% and 119%,90.8% and 95.5%,106% and 102%,86.2% and 97.6%,89.3% and 102%,88.5% and 91%,102% and 105%,,,,,,,,,,
Cn1c(=O)n(-c2ccc(C(C)(C)C#N)cc2)c2c3cc(-c4cnc5ccccc5c4)ccc3ncc21 [NVP-BEZ235],16.2,13.5,18.4,17,8.13,21.6,19.5,15.9,12,18.5,5.52,20.7,20.4,15.4,19.7,14.5,16.2,13.3,,,,,,,,,,,12.4,26.5,111,96.8,114,100,96.6,108
C/C(=C\c1csc(C)n1)[C@@H]1C[C@@H]2O[C@]2(C)CCC[C@H](C)[C@H](O)[C@@H](C)C(=O)C(C)(C)[C@@H](O)CC(=O)O1 [Patupilone],24.6,22.3,23.1,28.5,1.08,22.5,24.8,23.7,18.2,22.4,15.4,20.4,19.8,16.3,12.7,27,12.2,15.3,,,,,,,,,,,12.7,41,129,97.5,105,102,94.6,101
CNNCc1ccc(C(=O)NC(C)C)cc1 [Procarbazine],0,0,0,0,0,0,0,0,0,0,0.866,0,0,0,0,0,0,0,98.8%,127%,112%,110%,108%,106%,97%,104%,,,,,,,,,,
CC[C@]1(O)C[C@H]2CN(CCc3c([nH]c4ccccc34)[C@@](C(=O)OC)(c3cc4c(cc3OC)N(C=O)[C@H]3[C@@](O)(C(=O)OC)[C@H](OC(C)=O)[C@]5(CC)C=CCN6CC[C@]43[C@@H]65)C2)C1 [Vincristine],17.9 and 25,18.9 and 28.9,26.5 and 37.7,27 and 34.4,6.95 and 15.8,19.7 and 30.5,23 and 26.8,33.6 and 41.1,,25.5 and 32,18 and 21,17.5 and 26.3,27.8 and 35.7,22.6 and 27.4,16.9 and 22.7,23.5 and 35,17.8 and 20.6,23.8 and 23.7,10.4%,38.9%,82.5%,88.5%,108%,25.5%,57.7%,49.2%,,,17.2,36.6,95.8,107,87.6,87.9,77.9,87.5
